Literature values as cited in US6555712B2, “Process for the preparation of diorganotrisulfide” (Indian Institute of Technology, priority 2001, dated 2003).
Read-outs that look alike come from different tables or passages of the source. One block for each compound: values may come before it.

Assays:
macrophages [1] = conditions: 1-100 micrograms/ml
[2] = tested on: human nonneoplastic (MRC-5) lung cells; conditions: 10 microM
[3] = tested on: cultured human neoplastic (A549) lung cells; conditions: 1 microM for 24 hours
[4] = tested on: Trypanosoma brucei brucei, T.b. rhodesiense, T.b. gambiense, T. evansi, T. congolense and T. equiperdum; conditions: in vitro; one range for six Trypanosoma species
[5] = tested on: HEFL-12, human embryo fibroblast; conditions: HEFL-12 cell line, in vitro
Entamoeba histolytica = conditions: in vitro
[6] = tested on: intracellular Ca2+ in A549 cells
[7] = tested on: tumor derived immunosuppressive factors produced by S180 cells and Ehrlich ascitic cancer cells
[8] = tested on: human neoplastic (A549) lung cells; conditions: 10 micromolar
Giardia Lamblia = conditions: in vitro
[9] = tested on: MASEF, Mastomys natalensis embryo fibroblast; conditions: MASEF cell line, in vitro
[10] = tested on: canine mammary tumor cells (CMT-13)
[11] = tested on: Tribolium castaneum (Herbst); parameters: egg hatching: dose or concentration left out as unconfirmed
[12] = tested on: whole blood platelet-aggregation; conditions: DATS present in the steam-distilled component of garlic extract
[13] = tested on: Sitophilus zeamais (Motschulsky)
macrophages [14] = tested on: macrophages

IC50 (concentration which inhibits metabolism or growth of parasites by 50%) [4]: 0.8-5.5 micrograms/ml | IC50 (concentration which inhibits metabolism or growth of parasites by 50%) (Entamoeba histolytica): 59 micrograms/ml
Compound: C=CCSSSCC=C [DATS, Diallyltrisulfide]
production of NO by macrophages (macrophages [1]): can inhibit | MRC-5 cell growth [2]: did not alter | apoptosis, as indicated by increased DNA fragmentation [3]: significantly induced apoptosis | maximum tolerated concentration [5]: 25 micrograms/ml | intracellular Ca2+ in A549 cells ([6]; 10 microM, during the first four hours after treatment): marked and progressive increase | intracellular Ca2+ in A549 cells after refeeding the medium without DATS ([6]; after refeeding medium without DATS): returned to near control levels within one hour | inhibition by tumor derived immunosuppressive factors of the activation of T cells (inhibitory rate) [7]: reduce the inhibitory rate significantly | reduction of A549 growth [8]: 47% | IC50 (concentration which inhibits metabolism or growth of parasites by 50%) (Giardia Lamblia): 14 micrograms/ml | maximum tolerated concentration [9]: 25 micrograms/ml | effect on activation of T lymphocytes by Con A (T lymphocytes; 3.125-12.5 micrograms/ml): augmented | effect on T cell activation (T lymphocytes; high concentration (50 micrograms/ml)): inhibitory effect | growth of canine mammary tumor cells (CMT-13) [10]: markedly inhibits | egg hatching ([11]; T. castaneum): totally suppressed | feeding deterrence ([11]; T. castaneum adults, 0.75 mg/g food): 85% | contact and fumigant toxicities ([11]; T. castaneum adults, comparison with methylallyl disulfide): greater than that of methylallyl disulfide | feeding deterrence index ([11]; T. castaneum larvae, 2.98 mg/g food): 51% | larval and adult emergence ([11]; T. castaneum, at 0.08 mg/cm2): totally suppressed | nutritional indices ([11]; all of the insects tested (T. castaneum)): significantly reduced | Inhibition of whole blood platelet-aggregation [12]: high | feeding deterrence index ([13]; S. zeamais adults, 2.98 mg/g food): 27% | contact and fumigant toxicities ([13]; S. zeamais adults, comparison with methylallyl disulfide): greater than that of methylallyl disulfide | nutritional indices ([13]; all of the insects tested (S. zeamais)): significantly reduced | production of hydrogen peroxide (H2O2) by macrophages (macrophages [14]): enhance

Compound: C=CCSSC [Methylallyl disulfide, methylallyl disulfide, reference compound]
growth rate, food consumption, and food utilization of adults ([11]; T. castaneum adults): significantly decreased | feeding deterrence index ([11]; T. castaneum adults, 1.52 mg/g food): 44% | nutritional indices of T. castaneum larvae ([11]; T. castaneum larvae): did not affect | growth rate, food consumption, and food utilization of adults ([13]; S. zeamais adults): significantly decreased | feeding deterrence index ([13]; S. zeamais adults, 6.08 mg/g food): 44%
